Experimental findings from patent publication EP1137645B1, “ALPHA-METHYLBENZYL-CONTAINING THIOUREA INHIBITORS OF HERPES VIRUSES CONTAINING A […] GROUP” (Wyeth, priority 1998, dated 2000) are described below.

Values after ≈ are worked out from the molar mass of the structure shown. Read-outs that look alike come from different tables or passages of the source.

One test concerns VZV strain Ellen. In words: VZV antiviral (ELISA) assay. Format: cell-based. Put shortly:
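HFF cells infected with VZV Ellen at multiplicity below 0.1 overnight, then mixed infected/uninfected cells seeded with compound in DMEM/2% FBS and incubated three days at 37°C, 5% CO2.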
(In an ELISA, binding on a coated surface is turned into a signal by an enzyme label.)

Another test has as its system HSV- I. As to the kind of experiment: HSV antiviral (ELISA) assay. Format: cell-based. The note with it: for IC50: read-out: IC50 (ug/ml) HSV. Put shortly:
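IC50 from fluorescence versus untreated control in a cell ELISA: anti-glycoprotein D antibody, β-galactosidase-conjugated secondary, 4-methyl umbelliferone read at 365/450 nm. Vero cells (2% FBS DMEM) received compound 30 min pre-infection with HSV-1 at MOI 0.006, fixed ~24 h post-infection.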

Test [1] deals with HCMV recombinant mutant virus whose genome contains the prokaryotic beta-glucuronidase gene. As to the kind of experiment: microbe, parasite or virus in culture. The class given is cell-based, human cytomegalovirus. The note with it: for IC50: Human betaherpesvirus 5, Fibroblast; for IC50 ug/ml HCMV: human foreskin fibroblasts. The procedure, abridged:
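Antiviral IC50 estimated from reduced reporter activity across compound amounts: lysates prepared 96 h after infection were tested with p-nitrophenyl- or methylumbelliferyl-glucuronide. Cells were human foreskin fibroblasts, infected alongside inhibitor with HCMV (e.g. RV145) expressing viral promoter-driven beta-glucuronidase.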

The mark [2] stands for this setting: Human alphaherpesvirus 3, HFF, read-out: IC50 (ug/ml) VZV, VZV strain Ellen, HFF cells, ELISA.
Where [3] appears, read: read-out: IC50 ug/ml HCMV, HCMV, human foreskin fibroblasts.
The mark [4] stands for this setting: Human alphaherpesvirus 3, VZV strain Ellen, HFF cells, ELISA, read-out: IC50 (ug/ml) VZV.
Where [5] appears, read: VZV strain Ellen, HFF cells, ELISA.

As for `CC(NC(=S)Nc1ccc(NC(=O)c2ccccc2F)cc1)c1ccc(S(=O)(=O)N2CCCCC2)cc1` (stereo not shown) [Example 1009, 2-Fluoro-N-[4-(3-{1-[4-(piperidine-1-sulfonyl)-phenyl]-ethyl}-thioureido)-phenyl]-benzamide], the IC50 (in the test on VZV strain Ellen (setting [2]); in the test with HSV- I (Vero); in test [1] (setting [3])) was over 10 µg/mL throughout.
For `O=C(Nc1ccc(NC(=S)Nc2ccc(OCC(F)(F)F)cc2OCC(F)(F)F)cc1)c1ccccc1F` [Example 1010, N-(4-{3-[2,4-Bis-(2,2,2-trifluoro-ethoxy)-phenyl]-thioureido}-phenyl)-2-fluoro-benzamide], the IC50 is over 10 µg/mL in the test with VZV strain Ellen (setting [4]); over 10 µg/mL in the test on HSV- I (HSV- I, Vero cells, ELISA); over 10 µg/mL in test [1] (read-out: IC50 ug/ml HCMV).
Turning to `Cc1ccc([C@H](C)NC(=S)Nc2ccc(NC(=O)c3ccccc3F)cc2)cc1` [Example 1011, 2-Fluoro-N-{4-[3-((1S)-1-p-tolyl-ethyl)-thioureido]-phenyl}-benzamide], the values for the IC50 (in the test with VZV strain Ellen (setting [2]); in the test on HSV- I (Vero); in test [1] (setting [3])) were 0.55 µg/mL (≈ 1.35 µM), over 10 µg/mL and 6.8 µg/mL (≈ 16.7 µM), respectively.
For the compound `Cc1ccc([C@@H](C)NC(=S)Nc2ccc(NC(=O)c3ccccc3F)cc2)cc1` [Example 1012, 2-Fluoro-N-{4-[3-((1R)-1-p-tolyl-ethyl)-thioureido]-phenyl}-benzamide], the IC50 is over 7.5 µg/mL with VZV strain Ellen (setting [2]), over 10 µg/mL with HSV- I (Vero) and 7.1 µg/mL (≈ 17.4 µM) in test [1] (setting [3]).
As for `C[C@H](NC(=S)Nc1ccc(NC(=O)c2ccccc2F)cc1)c1ccccc1` [Example 1013, 2-Fluoro-N-{4-[3-((1S)-1-phenyl-ethyl)-thioureido]-phenyl}-benzamide], the IC50 with VZV strain Ellen (setting [4]) was 0.27 µg/mL (≈ 0.686 µM); in the test with HSV- I (HSV- I, Vero cells, ELISA), over 10 µg/mL; in test [1] (read-out: IC50 ug/ml HCMV), 8.2 µg/mL (≈ 20.8 µM).
For the compound `C[C@@H](NC(=S)Nc1ccc(NC(=O)c2ccccc2F)cc1)c1ccc(Cl)cc1` [Example 1014, N-(4-{3-[(1R)-1-(4-Chloro-phenyl)-ethyl]-thioureido}-phenyl)-2-fluoro-benzamide], the IC50 in the test with VZV strain Ellen (setting [2]) was over 7.5 µg/mL; in the test with HSV- I (Vero), over 10 µg/mL; in test [1] (setting [3]), 2.9 µg/mL (≈ 6.78 µM).
The corresponding values for `C[C@H](NC(=S)Nc1ccc(NC(=O)c2ccccc2F)cc1)c1ccc(Cl)cc1` [Example 1015, N-(4-{3-[(1S)-1-(4-Chloro-phenyl)-ethyl]-thioureido}-phenyl)-2-fluoro-benzamide] are 0.03 µg/mL (≈ 0.0701 µM), over 10 µg/mL and 2.5 µg/mL (≈ 5.84 µM).
Turning to `C[C@@H](NC(=S)Nc1ccc(NC(=O)c2ccccc2F)cc1)c1ccccc1` [Example 1016, 2-Fluoro-N-{4-[3-((1R)-1-phenyl-ethyl)-thioureido]-phenyl}-benzamide], the IC50 in the test on VZV strain Ellen (setting [4]) is over 7.5 µg/mL; with HSV- I (HSV- I, Vero cells, ELISA) it was over 10 µg/mL; in test [1] (read-out: IC50 ug/ml HCMV) it was 6.4 µg/mL (≈ 16.3 µM).
Take `COc1ccccc1C(=O)Nc1ccc(NC(=S)NC(C)c2ccc(C#N)cc2)cc1` (stereo not shown) [Example 1017, N-(4-{3-[1-(4-Cyano-phenyl}-ethyl]-thioureido}-phenyl)-2-methoxy-benzamide]: the IC50 in the test with VZV strain Ellen (setting [2]) was 0.3 µg/mL (≈ 0.697 µM); in the test on HSV- I (Vero) it was over 10 µg/mL; in test [1] (setting [3]) it was over 10 µg/mL.
As to `COc1ccccc1C(=O)Nc1ccc(NC(=S)NC(C)c2cc3ccccc3o2)cc1` (stereo not shown) [Example 1018, N-{4-[3-(1-Benzofuran-2-yl-ethyl)-thioureido]-phenyl}-2-methoxy-benzamide], the values for the IC50 (in the test with VZV strain Ellen (setting [2]); in the test with HSV- I (Vero); in test [1] (setting [3])) were 0.09 µg/mL (≈ 0.202 µM), over 10 µg/mL and over 10 µg/mL, respectively.
In the case of `CC(NC(=S)Nc1ccc(NC(=O)c2cccc(C#N)c2)cc1)c1ccc(F)cc1` (stereo not shown) [Example 1020, 3-Cyano-N-(4-{3-[1-(4-fluoro-phenyl)-ethyl]-thioureido}-phenyl)-benzamide], the IC50 was 6.3 µg/mL (≈ 15.1 µM) with VZV strain Ellen (setting [4]); over 10 µg/mL in the test on HSV- I (HSV- I, Vero cells, ELISA); 6.5 µg/mL (≈ 15.5 µM) in test [1] (read-out: IC50 ug/ml HCMV).
The corresponding values for `CC(NC(=S)Nc1ccc(NC(=O)c2ccc(C(F)(F)F)cc2)cc1)c1ccc(F)cc1` (stereo not shown) [Example 1021, N-(4-{3-[1-(4-Fluoro-phenyl)-ethyl]-thioureido}-phenyl)-4-trifluoromethyl-benzamide] are 0.4 µg/mL (≈ 0.867 µM), over 10 µg/mL and over 10 µg/mL.
The like results for `CC(NC(=S)Nc1ccc(NC(=O)c2ccc(C#N)cc2)cc1)c1ccc(F)cc1` (stereo not shown) [Example 1022, 4-Cyano-N-(4-{3-[1-(4-fluoro-phenyl)-ethyl]-thioureido}-phenyl)-benzamide] were, in that order, 1.5 µg/mL (≈ 3.58 µM), over 10 µg/mL and 4.4 µg/mL (≈ 10.5 µM).
“N-(4-{3-[1-(4-Bromo-phenyl)-ethyl]-thioureido}-phenyl)-2-methoxy-benzamide [Example 1019]”: the “IC50 (ug/ml) VZV” value in the test with VZV strain Ellen (setting [5]) was 0.05 µg/mL. The “IC50 (ug/ml) HSV” value with HSV- I (HSV- I, Vero cells, ELISA) is over 10 µg/mL. Further, the “IC50 ug/ml HCMV” value in test [1] was 2.6 µg/mL.
Consider “N-{4-[3-(3-Chloro-4-methoxy-phenyl)-thioureido]-phenyl}-4-methoxy-benzamide [Example 821]”, for which, in the test with VZV strain Ellen (10 ug/ml, VZV strain Ellen, HFF cells, ELISA), the “% inhibition 10 ug/ml VZV” value is 55%. In addition, the “IC50 (ug/ml) VZV” value in the test on VZV strain Ellen (setting [5]) was over 10 µg/mL. Also, the “IC50 (ug/ml) HSV” value in the test with HSV- I (HSV- I, Vero cells, ELISA) was found to be 0.15 µg/mL. In test [1], the “IC50 ug/ml HCMV” value was found to be 1 µg/mL.
